Test results: ChEMBL document CHEMBL1126258, “4-[2-[Methyl(2-phenethyl)amino]-2-oxoethyl]-8-(phenylmethoxy)-2- naphthalenecarboxylic acid: a high affinity, competitive, orally active leukotriene B4 receptor antagonist” (J Med Chem, 1992)

What was measured:
[1] = target: T1, Leukotriene B4 receptor 1 (Homo sapiens, UniProt Q15722); test: Antagonistic activity in human polymorphonuclear (PMN) LTB4 receptor; type: functional
[2] = Effect on LTB4-induced neutrophil function (neutrophilia) after systemic administration of 0.3 micro/kg to cynomolgus monkey.; type: functional, Cercopithecidae
[3] = Effect on LTB4-induced neutrophil function (neutropenia) after systemic administration of 0.3 micro/kg to cynomolgus monkey.; type: functional, Cercopithecidae
[4] = target: T1, Leukotriene B4 receptor 1; test: Antagonistic activity against human polymorphonuclear (PMN) LTB4 receptor; type: functional

T1 sequence (Q15722 whole entry): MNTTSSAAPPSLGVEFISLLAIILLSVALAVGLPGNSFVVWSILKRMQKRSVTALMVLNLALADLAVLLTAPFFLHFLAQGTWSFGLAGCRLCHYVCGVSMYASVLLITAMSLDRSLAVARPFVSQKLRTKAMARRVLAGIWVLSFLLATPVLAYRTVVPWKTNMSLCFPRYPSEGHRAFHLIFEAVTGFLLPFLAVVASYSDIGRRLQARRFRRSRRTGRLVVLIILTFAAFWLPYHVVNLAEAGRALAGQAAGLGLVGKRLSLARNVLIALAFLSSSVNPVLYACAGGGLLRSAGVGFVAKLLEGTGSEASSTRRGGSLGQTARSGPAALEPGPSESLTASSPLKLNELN

## CN(CCc1ccccc1)C(=O)Cc1ccc(OCc2ccccc2)cc1
[1]
  IC50: 4700 nM

## CN(CCc1ccccc1)C(=O)Cc1cc(C(=O)O)cc2c(OCc3ccccc3)cccc12
[2]
  Inhibition: 73%
[3]
  Inhibition: 61%

## COc1ccc(/C=C/CCCCOc2ccc(C(=O)c3cccc(C(=O)O)c3)cc2CCC(=O)O)cc1
[4]
  IC50: 12 nM
